Results: article PMC10662218 (RSC Advances, 2023)

Biological target: Human insulin (monomeric insulin) (Homo sapiens, UniProt P01308)
Test: intrinsic Tyr fluorescence quenching
Type: binding
Settings: insulin 25 μM, compound 2-24 μM, double-log

Human insulin (monomeric insulin), sequence (P01308 25-54): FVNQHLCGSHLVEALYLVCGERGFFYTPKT
Human insulin (monomeric insulin), sequence (P01308 90-110): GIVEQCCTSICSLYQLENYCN

K b, 10^4 (M^-1) / 293 K | SMILES
2.18 × 10^4 M^-1 | COc1cccc(/C=N/C(C)(C)C)c1O [3a, (E)-2-((tert-butylimino)methyl)-6-methoxyphenol]
17.09 × 10^4 M^-1 | COc1cccc(/C=N/C(CO)(CO)CO)c1O [3b, (E)-2-((2-hydroxy-3-methoxybenzylidene)amino)-2-(hydroxymethyl)propane-1,3-diol]
